Records with an inconclusive call do not appear. Active and inactive are the calls of the source. The rule behind the calls is not given here.
These compounds were tested against Zinc finger protein mex-5 (Caenorhabditis elegans) (UniProt Q9XUB2) (assay: retest of MEX-5 TCR-2 binding inhibitors, confirmation, biochemical, C. elegans, fluorescence polarization, dose retest (AID 449745;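 note: potency is for blocking Mex-5 binding to labeled TCR2 RNA like unlabeled competitor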)). Conditions: Mex-5 / TCR-2 RNA binding.
Chain of Zinc finger protein mex-5 (Caenorhabditis elegans) (Q9XUB2 whole entry, looked up): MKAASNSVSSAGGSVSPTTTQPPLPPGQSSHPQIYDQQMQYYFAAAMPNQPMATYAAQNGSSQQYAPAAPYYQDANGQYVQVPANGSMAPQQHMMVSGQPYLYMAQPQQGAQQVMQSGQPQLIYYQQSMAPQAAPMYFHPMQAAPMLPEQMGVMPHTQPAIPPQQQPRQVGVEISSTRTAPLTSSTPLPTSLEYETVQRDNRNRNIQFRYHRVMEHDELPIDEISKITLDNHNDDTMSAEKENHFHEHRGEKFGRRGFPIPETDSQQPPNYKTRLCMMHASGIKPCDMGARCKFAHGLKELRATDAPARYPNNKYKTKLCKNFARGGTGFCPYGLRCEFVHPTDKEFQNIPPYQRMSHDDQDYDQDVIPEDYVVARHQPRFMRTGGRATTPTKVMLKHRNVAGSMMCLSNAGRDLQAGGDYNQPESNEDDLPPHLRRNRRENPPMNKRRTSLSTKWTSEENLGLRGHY
`CC(C)(C)OC(=O)NCCCC1=CC2=CC(=O)C(C)(O)C(=O)C2=CO1` (stereo unspecified) showed an AC50 of 19.3 µM.
In the case of `Cc1nnc(SCc2nc3sc4c(c3c(=O)[nH]2)CCCC4)n(N)c1=O`, the AC50 is reported as > 38 µM (inactive).
In the case of `COc1ccc2cc(N=Cc3nc(-c4ccc(C)cc4)oc3O)cnc2c1`, the AC50 is reported as > 38 µM (inactive).
In the case of `COc1cccc(NC(=O)CSc2nc3ccccc3nc2N2CCOCC2)c1`, the AC50 is reported as > 38 µM (inactive).
`O=C(NC(=S)NNS(=O)(=O)c1ccccc1)c1ccc([N+](=O)[O-])cc1` gave an AC50 of 34.2 µM.
`Oc1ccc(N=Nc2n[nH]c(-c3ccccc3)n2)cc1` gave an AC50 of 4.21 µM.
With `N#CC(C#N)=NNc1ccc(S(N)(=O)=O)cc1` the AC50 was 7.56 µM.
With `Cc1ccc(C(=O)N/N=C\c2cc(Br)c(Br)o2)cn1` the AC50 was 39.7 µM.
`CCCCN(C(=O)C1=COCCO1)c1c(N)n(Cc2ccccc2)c(=O)[nH]c1=O` was tested, and the AC50 was > 38 µM (inactive).
`O=c1c2ccccc2c(C=Nc2ccc(O)cc2)c(O)n1-c1nccs1` was tested, and the AC50 was > 38 µM (inactive).
`COc1ccc(C(=O)c2c(N)sc3c2CCN(C)C3)cc1` was tested, and the AC50 was > 38 µM (inactive).
`COc1ccccc1OCC(=O)NNC(=O)c1cnccn1` gave an AC50 of 35.3 µM.
`O=C1CSC(=S)N1/N=C/c1cc(Br)c(O)c(Br)c1` was tested, and the AC50 was > 38 µM (inactive).
Work on `O=C(NNc1ncnc2c1cnn2-c1ccc(F)cc1)c1ccco1` yielded an AC50 of 15.9 µM.
In the case of `Nc1ccc2nc3c(=O)n(CCc4ccccc4)c(=O)[nH]c3nc2c1`, the AC50 is reported as 3.43 µM.
`O=c1[nH]c(/C=C/c2cccc3ccccc23)nc2ccccc12` was tested, and the AC50 was > 38 µM (inactive).
For `CC1=C(C#N)C(=O)N(C2CCS(=O)(=O)C2)C(=O)/C1=C\c1ccco1` (stereo unspecified), the AC50 was 3.22 µM.
`Cc1cc(C)cc(NC(=O)N(C)Cc2ccccc2)c1` was tested, and the AC50 was > 38 µM (inactive).
Compound `O=C(N/N=C/c1sc(=O)[nH]c1-[n+]1ccccc1)c1ccccc1[O-]` has an AC50 of 30.2 µM.
`Oc1ccc(/C=N/n2c(-c3ccccc3)n[nH]c2=S)cc1Br` gave an AC50 of 13.1 µM.
In the case of `Cc1nc2ccc3nc(NC(=O)c4ccc5c(c4)OCCO5)sc3c2s1`, the AC50 is reported as > 38 µM (inactive).
`COc1ccc(NC(=S)NNc2ccc(S(=O)(=O)Nc3ccccc3C(=O)O)cc2[N+](=O)[O-])cc1` showed an AC50 of 6.28 µM.
For `CCOc1ccc2nc(N3CCCN(C(=O)Nc4ccccc4C)CC3)c(C#N)cc2c1`, the AC50 was 22.8 µM.
`Cc1cccc(C2Nc3ccccc3C(=O)N2NC(=O)c2ccc([N+](=O)[O-])cc2)n1` (stereo unspecified) was tested, and the AC50 was 8.47 µM.
Work on `COC(=O)CCC(=O)OC1(C)C(=O)C2=CN(Cc3ccco3)C(c3ccc(OC)cc3)=CC2=C(Br)C1=O` (stereo unspecified) yielded an AC50 of 21.1 µM.
`CC[n+]1c(/C=C/C=C/c2ccc(N(C)C)cc2)sc2ccccc21` showed an AC50 of 18.8 µM.
With `Cc1ccccc1C(=O)N=c1ccn(-c2nc3ccccc3nc2NS(=O)(=O)c2ccccc2)cc1` the AC50 was > 38 µM (inactive).
In the case of `Cc1cccc(CS(=O)(=O)c2nnc([C@H](Cc3ccccc3)NC(=O)OC(C)(C)C)o2)c1`, the AC50 is reported as > 38 µM (inactive).
`CN(N=Nc1ccc([N+](=O)[O-])cc1)c1ccccc1` was tested, and the AC50 was 9.51 µM.
With `CN(C)c1ccc(/C=C/c2nc3ccccc3c(=O)[nH]2)cc1` the AC50 was > 38 µM (inactive).
In the case of `CCOC(=O)c1ccc(NC(=O)C(=O)NCc2ccc(/C=C(/C#N)C(=O)NCCOC)o2)cc1`, the AC50 is reported as > 38 µM (inactive).
With `COc1cc(CCC(=O)Nc2ccc(Cl)c(C(F)(F)F)c2)cc(OC)c1OC` the AC50 was > 38 µM (inactive).
Compound `COc1ccc(Cn2c3ccc(OC)cc3c3nc4ccccc4nc32)cc1` has an AC50 of 22.9 µM.
`CC1=Nc2cccc3cccc(c23)N1C` was tested, and the AC50 was > 38 µM (inactive).
`CCOC(=O)c1c(-c2ccccc2)oc2ccc(OCC(=O)NNC(=O)CCC(=O)O)cc12` was tested, and the AC50 was 15.1 µM.
With `N=c1c(S(=O)(=O)c2ccc(Cl)cc2)cc2c(=O)n3ccccc3nc2n1CC1CCCO1` (stereo unspecified) the AC50 was > 38 µM (inactive).
`O=C(c1nc2ccc(Cl)cn2c1CN1CCCC1)N1CCc2ccccc2C1` showed an AC50 of 23.7 µM.
`COc1cc(/C=C2/C(=O)NN(c3ccc(Cl)c(Cl)c3)C2=O)cc([N+](=O)[O-])c1O` was tested, and the AC50 was 31.6 µM.
Work on `Cc1nn(C)cc1C(=O)NNC(=S)Nc1ccccc1` yielded an AC50 of 19.5 µM.
For `COc1cc([N+](=O)[O-])ccc1N/C=C/C(=O)c1cccs1`, the AC50 was > 38 µM (inactive).
In the case of `CN1C(=O)C(=Cc2sc(=O)n(-c3ccccc3)c2N(C)C)C(=O)N(C)C1=O`, the AC50 is reported as > 38 µM (inactive).
In the case of `COc1ccc(N=C2S/C(=C\c3cc(C)n(C)c3C)C(=O)N2C)cc1`, the AC50 is reported as > 38 µM (inactive).
With `CC(C)C1Nc2ccc(C(=O)O)cc2C2C=CCC21` (stereo unspecified) the AC50 was > 38 µM (inactive).
Work on `O=S(=O)(Nc1ccc(O)c(NS(=O)(=O)c2ccccc2)c1)c1ccccc1` yielded an AC50 of 6.92 µM.
Work on `O=C(CCN1C(=O)/C(=C/c2ccco2)SC1=S)Nc1ccc(C(=O)O)c(O)c1` yielded an AC50 of 30.6 µM.
`O=C(O)c1cc(-c2ccco2)nc2cc3ccccc3cc12` was tested, and the AC50 was > 38 µM (inactive).
Compound `Cn1nc([N+](=O)[O-])c(C(C#N)c2nc3ccccc3n2C)c(Cl)c1=O` (stereo unspecified) has an AC50 of 22.9 µM.
For `N#C/C(=C\c1cn(-c2ccccc2)nc1-c1cc2ccccc2o1)c1nc2ccccc2[nH]1`, the AC50 was > 38 µM (inactive).
`COC/C=C/C1=CC2=CC(=O)C(C)(O)C(=O)C2=CO1` (stereo unspecified) showed an AC50 of 13 µM.
With `O=C(c1ccc(Cl)cc1)C1C2C(=O)N(c3ccccc3)C(=O)C2C2CCCN21` (stereo unspecified) the AC50 was 19.8 µM.
For `O=C1/C(=C\c2ccc(Br)cc2)SC(=S)N1NS(=O)(=O)c1ccccc1`, the AC50 was 17.7 µM.
`COc1ccc(/C=C/C(=O)N/C(=C\c2ccco2)C(=O)NCCc2nc3ccccc3[nH]2)cc1` was tested, and the AC50 was > 38 µM (inactive).
`COc1cc(OC)c(OC)cc1/C=C1/Cc2ccccc2C1=O` showed an AC50 of 8.04 µM.
Work on `CCOC(=O)NC(=O)COC(=O)c1ccc(Sc2ncn[nH]2)c([N+](=O)[O-])c1` yielded an AC50 of 16.1 µM.
With `O=C1NC(=O)/C(=C\c2ccc(O)cc2O)S1` the AC50 was 11.5 µM.
For `CCCCCCc1cc2cc(C(=O)NC)c(=N)oc2cc1O`, the AC50 was 6.09 µM.
In the case of `CC(C)(C)C1CC=C2C(C#N)=C(N)C(C#N)(C#N)C(c3cccs3)C2C1` (stereo unspecified), the AC50 is reported as > 38 µM (inactive).
For `Cc1c(N=NC2=C(O)CCCC2=O)c(=O)n(-c2ccccc2)n1C`, the AC50 was > 38 µM (inactive).
`Cc1ccc(O)c(N=CC2=C(O)c3ccccc3C2=O)c1` was tested, and the AC50 was 24.8 µM.
Work on `COC/C=C/C1=CC2=CC(=O)C(C)(OC(=O)c3cnc4ccccc4n3)C(=O)C2=CO1` (stereo unspecified) yielded an AC50 of 17.4 µM.
`O=C(Nc1nc2c(s1)CN(Cc1ccccc1)CC2)c1cccc(S(=O)(=O)N2CCc3ccccc32)c1` was tested, and the AC50 was > 38 µM (inactive).
`CC(C)OC(=O)c1c2c(n3ccccc13)C(=O)c1ccccc1C2=O` was tested, and the AC50 was 19.1 µM.
`O=c1[nH]n2c(=O)c3c([nH]c2c1N=Nc1ccccc1)CCC3` gave an AC50 of less than 0.3 µM.
With `CCOC(=O)NNc1ccc2nonc2c1[N+](=O)[O-]` the AC50 was > 38 µM (inactive).
Work on `CCn1c(CSc2nnc3ccccn23)nc2cc(C(=O)O)ccc21` yielded an AC50 of 33.9 µM.
`O=C(Nc1ccccc1F)C(=Cc1sc(N2CCOCC2)nc1-c1ccccc1)C(=O)Nc1ccccc1F` gave an AC50 of 29.4 µM.
Work on `CC1C(=O)NN=C1C(=O)N/N=C\c1ccc(O)cc1O` (stereo unspecified) yielded an AC50 of 10.2 µM.
`Cc1cc(=O)[nH]c(SCc2nc3ccc([N+](=O)[O-])cc3[nH]2)n1` was tested, and the AC50 was 16.6 µM.
For `CCCCOc1ccc2c(c1)/C(=C(\C(Cl)=C(Cl)Cl)[N+](=O)[O-])N2`, the AC50 was 14.2 µM.
With `O=C(O)C1Nc2c(Cl)cc(Cl)cc2C2C=CCC12` (stereo unspecified) the AC50 was 33.2 µM.
Compound `Oc1ccc(N=Nc2nccs2)c(O)c1` has an AC50 of 38.3 µM.
In the case of `O=[N+]([O-])c1ccc(NCc2ccccc2)c2nonc12`, the AC50 is reported as 0.744 µM.
`O=C(O[C@@H]1OC2COC(=O)c3cc(O)c(O)c(O)c3-c3c(cc(O)c(O)c3O)C(=O)O[C@@H]([C@H]1O)[C@@H]2O)c1cc(O)c(O)c(O)c1` was tested, and the AC50 was 5.19 µM.
Work on `COc1ccc2c(c1)c1nc3ccccc3nc1n2Cc1ccc(OC(C)C)c(OC)c1` yielded an AC50 of 24.3 µM.
In the case of `C[n+]1c2ccccc2nc2ccc(NCCO)cc21`, the AC50 is reported as 30.6 µM.
For `CCOC(=O)/C=c1\s/c(=C\c2ccc3cc(OC)ccc3c2)c(=O)n1CC(=O)NCc1ccc2c(c1)OCO2`, the AC50 was > 38 µM (inactive).
Compound `CN(C)c1ccc(/C=N/NC(=O)c2cnc3ccccc3c2)cc1` has an AC50 of 31.7 µM.
`COc1cc(C(=O)NC(=S)NNC(=O)c2cnccn2)cc(OC)c1OC` gave an AC50 of less than 0.3 µM.
`C=C1c2cccc(O)c2C(O)=C2C(=O)[C@]3(O)C(O)=C(C(N)=O)C(=O)[C@@H](N(C)C)[C@@H]3[C@@H](O)[C@H]12` gave an AC50 of 17.7 µM.
With `CN(C)C1C(=O)C(C(N)=O)=C(O)C2(O)C(=O)C3=C(O)c4c(O)cccc4C(C)(O)C3CC12` (stereo unspecified) the AC50 was > 38 µM (inactive).
Compound `Cc1cc(C(=O)NNC(=O)CCCCC(=O)NNC(=O)c2cc(C)[nH]n2)n[nH]1` has an AC50 of less than 0.3 µM.
With `COC(=O)COc1ccc(C2Nc3c(Cl)ccc(C(=O)O)c3C3C=CCC32)cc1` (stereo unspecified) the AC50 was > 38 µM (inactive).
Work on `O=C(O)c1cc(O)c2c(c1)[C@@H]([C@H]1c3cc(C(=O)O)cc(O)c3C(=O)c3c(O[C@@H]4O[C@H](CO)[C@@H](O)[C@H](O)[C@H]4O)cccc31)c1cccc(OC3O[C@H](CO)[C@@H](O)[C@H](O)[C@H]3O)c1C2=O` (stereo partly specified) yielded an AC50 of 1.52 µM.
`Oc1sc(C=Nc2ccc(F)cc2)c2ccccc12` was tested, and the AC50 was 22.2 µM.
Compound `O=Cc1ccc2ccc3cccnc3c2n1` has an AC50 of 30.2 µM.
In the case of `CC1CC(=O)c2c(cc3c(-c4c(O)cc(O)c5c(O)c6c(cc45)OC(C)CC6=O)c(O)cc(O)c3c2O)O1` (stereo unspecified), the AC50 is reported as 2.07 µM.
In the case of `CC(=O)OC1=C(O)C(=O)c2ccccc2C1=O`, the AC50 is reported as 10.3 µM.
In the case of `O=C1c2cccc3c(Cl)ccc(c23)C(=O)N1O`, the AC50 is reported as 26.2 µM.
`COc1ccccc1C(=O)Oc1ccc2c(c1)O/C(=C\c1ccncc1)C2=O` was tested, and the AC50 was 10.8 µM.
With `O=C(CN1C(=O)/C(=C/c2cccc(Br)c2)SC1=S)NC1=NCCS1` the AC50 was > 38 µM (inactive).
In the case of `CN1CCN(c2nc(-c3ccccc3)nc(-c3ccccc3)c2C#N)CC1`, the AC50 is reported as > 38 µM (inactive).
For `O=c1[nH]c(=S)n(-c2ccc(Cl)cc2)c(O)c1C=Nc1ccc(N2CCOCC2)cc1`, the AC50 was 30 µM.
Compound `COc1cccc(N=Nc2c(N)[nH][nH]c2=O)c1` has an AC50 of 10.3 µM.
`CCc1nnc(NC(=O)CCN2C(=O)/C(=C/c3cc(OC)c(OC)c(OC)c3)SC2=S)s1` was tested, and the AC50 was > 38 µM (inactive).
In the case of `Nc1ccc(N(CCO)CCO)cc1`, the AC50 is reported as > 38 µM (inactive).
`Cc1ccc(-c2cc(C(=O)O)c3cc(Br)ccc3n2)o1` was tested, and the AC50 was > 38 µM (inactive).
With `NC1=NC(=O)/C(=C\C=C\c2ccccc2)S1` the AC50 was > 38 µM (inactive).
`Cn1c(=O)c(Nc2ccc(Cl)cc2)c2c3c(cccc31)C(=O)c1ccccc1-2` showed an AC50 of 1.63 µM.
`CCOC(=O)c1c(/N=C/C2C(=O)NC(=S)NC2=O)sc2c1CCC2` showed an AC50 of 12.8 µM.
`Cc1cc(/C=C2\SC(=S)N(Cc3ccco3)C2=O)c(C)n1-c1ccccc1` was tested, and the AC50 was 16.6 µM.
In the case of `CCn1c(C)c(C(C)=O)c(N2CCN(c3ccccc3)CC2)nc1=S`, the AC50 is reported as > 38 µM (inactive).
